Where two headings read alike, the source gives them in different places.
Columns and labels:
[1] = test system: early stage (I-III) gametocytes of 3D7 expressing luciferase parasite; assay: In vitro gametocytocidal activity, early stage; format: cell-based, Plasmodium falciparum
Excerpt: (§1) Late stage (IV-V) gametocytes are more refractory to antimalarial drugs than early-stage gametocytes and blood stage parasites, and thus fewer compounds are effective against late stage Pf gametocytes. […] FIGS. 4A and 4B are an examples according to various embodiments illustrating results showing the activity of compound 24 on gametocyte stages, based on an evaluation of the viability of gametocytes after the exposure of compound 24 on early (A) and late (B) gametocytes stages of 3D7 expressing luciferase parasite. In FIGS. 4A and 4B, EC50 data represent the means and SEMs of three experiments. Therefore, arylvinylquinolines represented good leads as new antimalarials with promising dual stage (blood and gametocyte) activity.

[2] = test system: late stage (IV-V) gametocytes of 3D7 expressing luciferase parasite; assay: In vitro gametocytocidal activity, late stage; format: cell-based, Plasmodium falciparum; conditions: late stage gametocytes, means and SEMs of three experiments
Excerpt: as §1

[3] = test system: CQ-resistant (Dd2) strain of P. falciparum; assay: In vitro antiplasmodial activity, SYBR Green I fluorescence assay, Dd2 strain; format: cell-based, Plasmodium falciparum
Description: (§2) A set of 104 new styrylquinoline derivatives were synthesized and investigated for in vitro their antimalarial activity. To test antimalarial activities, different dilutions of compounds were added to P. falciparum culture. Following 72 h incubation at 37° C. in an atmosphere containing 5% CO2, the inhibitory property of the compounds were determined by SYBR Green I fluorescence assay. Meanwhile, SARs studies were conducted.
The SAR studies were focused on improving the in vitro activity of 2-arylvinylquinolines against the CQ-resistant Pf Dd2 strain.

[4] = test system: P. falciparum 3D7 strain (CQ-sensitive); assay: In vitro antiplasmodium activity, 3D7 strain; format: cell-based, Plasmodium falciparum
Description: as §2

HepG2 = assay: Cytotoxicity assay using MTS in human hepatocytes; format: cell-based; conditions: for SI, selectivity index = [IC50 (HepG2)/IC50 (Dd2)]: HepG2 versus Dd2
[5] = In vitro microsomal turnover assay (metabolic stability)
Description: Selectivity of compounds were determined by cytoxicity assay using MTS [(3-(4,5-dimethylthiazol-2-yl)-5-(3-carboxymethoxyphenyl)-2-(4-sulfophenyl)-2H-tetrazolium) in human hepatocytes. The metabolic stability of compounds was determined in mouse liver microsomes using an NADPH-regenerating system. The aqueous solubility at pH 7.4 was determined by UV-visible absorption based method. The permeability was assessed by the in vitro double-sink parallel artificial membrane permeability assay 52 that is a model for the passive transport from the gastrointestinal tract into the blood stream.
To assess the metabolic stability, the selected compounds were subjected to an in vitro microsomal turnover assay with mouse liver microsomal preparations. This assay determines the percentage of the parent compound residues after 60 min incubation (Table 7).

[6] = test system: β-hematin crystal formation; assay: β-hematin inhibition experiment; format: biochemical; conditions: 100 μM hemin, 16 h at 37° C., up to 200 μM compound
Description: CQ and other aminoquinolines are known to fight against the malaria parasites by blocking hematin biocrystallization (hemozoin formation) through π-π stacking between the aminoquinoline scaffold and the heme. As a result, the accumulated toxic heme causes the parasite death by introducing oxidative membrane damage. β-hematin inhibition experiments were performed to determine possible mode of actions of arylvinylquinolines. FIG. 5A is an example according to various embodiments illustrating images of β-hematin crystals after incubation of 100 μM hemin, propionate buffer, phosphatidylcholine and, several concentrations of compound for 16 h at 37° C. […] In FIGS. 5A and 5B, the data are mean±SEM.

[7] = test system: tightly synchronized Dd2 parasites; assay: Developmental stage specific action (Giemsa microscopy and flow cytometry); format: cell-based, Plasmodium falciparum; conditions: 5×EC50, treated at 6, 18, 30 and 42 h post-invasion
Description: Accurate definition of the timing of action of antimalarial agents could give valuable insights into the developmental growth and clinical clearance of the parasite. To further understand the antimalarial activity of arylvinylquinolines, the developmental stage specific action of the most promising compound 24 was determined by both microscopy and flow cytometry analysis. Tightly synchronized cultures were exposed to 5×EC50 concentration of compound 24 at 6, 18, 30 and 42 hours post-invasion (HPI) of the merozoites. Microscopic analysis of Giemsa-stained-thin smears and flow cytometric evaluation were performed at 12 h intervals.
In FIGS. 2A and 2B, the results are representative of three independent biological replicates.

[8] = test system: asynchronous Dd2 parasite cultures; assay: Kill kinetic experiments (rate of killing, parasitocidal/parasitostatic); format: cell-based, Plasmodium falciparum; conditions: 5×EC50 (Atovaquone 6.6 nM) for 6, 12, 24 and 48 h
Description: To study whether arylvinylquinolines exerted their antiplasmodial activity through a parasitocidal or parasitostatic mechanism, kill kinetic experiments in Dd2 strain were performed. […] After washing to remove the inhibitors at these time points, the growth of the cultures was continued to be assessed for 96 h.
FIGS. 3A, 3B, 3C, and 3D are examples according to various embodiments illustrating rate of killing and parasitocidal/parasitostatic activity determination of arylvinylquinolines. […] After each exposure, cultures were washed three times in RPMI, resuspended in culture media, and monitored for parasite growth daily for 4 days. DHA and Atovaquone (50 nM and 6.6 nM) were included as fast and slow acting controls, respectively. Parasitemia was determined by microscopy of Giemsa stained smear.

[9] = Cytotoxicity assay using MTS in human hepatocytes; format: cell-based; conditions: human; Table 6B, unit inferred; footnote IC50 (HepG2); read-out: Cytotoxic activity HepG2 (converted)
[10] = Plasmodium falciparum, 3D7, read-out: Early stage IC50 (nM)
[11] = CQ-resistant (Dd2) strain, 72 h incubation, read-out: EC50 (nmol)
[12] = Table 6A, unit not given (text gives nM), footnote calls it IC50, read-out: Antiplasmodium activity Dd2 (converted)
[13] = Table 6A, nM, footnote calls it IC50, read-out: Antiplasmodium activity 3D7 (converted)
[14] = Table 6B, unit inferred, footnote IC50 (HepG2), read-out: Cytotoxic activity HepG2 (converted)
[15] = mouse liver microsomes, 60 min incubation

Row | SMILES | RI, resistance index = [IC50 (Dd2)/IC50 (3D7)] [3] | EC50 [3, 11] | EC50 [3, 12] | EC50 [4, 13] | IC50 (HepG2) | SI, selectivity index = [IC50 (HepG2)/IC50 (Dd2)] (HepG2) | Projected t1/2 [5] | Clint ([5]; mouse, microsomes) | % remaining after 60 min ([5]; mouse, microsomes, 1 h) | EC50 ([3]; Dd2 strain, read-out: EC50) | also measured
1 | CN(C)c1ccc2nc3ccc(=[N+](C)C)cc-3sc2c1 [Methylene blue, reference compound] | – | – | – | – | – | – | – | – | – | – | IC50 [1, 10]: 74.7 ± 21.9 nM; IC50 ([2]; Plasmodium falciparum, 3D7): 107 ± 46.3 nM
2 | CN1CCN(CCNc2cc(/C=C/c3ccc(F)cc3)nc3ccc(Cl)cc23)CC1 [Compound 86] | 1 | 15.3 ± 3.4 nM | 15.3 ± 3.4 nM | 15.7 ± 2.9 nM | 3200 ± 491 nM | 209 | 60.3 min | 23.0 µL/min/mg | 50.2% | – | IC50 ([1]; early stage gametocytes, means and SEMs of three experiments, read-out: Early stage IC50): 910 ± 314 nM; IC50 [2]: 2500 ± 424 nM; inhibitory activity towards β-hematin formation [6]: much weaker than that of CQ; stage-specific inhibition of P. falciparum growth [7]: stage-specific action at the trophozoite phase; rate of killing (parasitemia after exposure and wash-out) [8]: remarkable reduction in parasitemias
3 | CCN(CC)CCCC(C)Nc1ccnc2cc(Cl)ccc12 (centres unmarked) [CQ, Chloroquine, reference compound] | 9.8 | – | – | – | – | 60 | – | – | – | – | EC50 ([3]; Plasmodium falciparum, DD2, 72 h, CQ-resistant (Dd2) strain, 72 h incubation): 174 ± 15.5 nM; EC50 ([3]; Plasmodium falciparum, DD2, read-out: Antiplasmodium activity Dd2, Table 6A, unit not given (text gives nM), footnote calls it IC50): 174 ± 15.5 nM; EC50 ([4]; Plasmodium falciparum, 3D7, Table 6A, nM, footnote calls it IC50, read-out: Antiplasmodium activity 3D7 (converted)): 17.8 ± 5.5 nM; IC50 [9]: 10400 ± 860 nM; inhibitory activity towards β-hematin formation [6]: potently inhibited
4 | FC(F)(F)c1ccc(/C=C/c2cc(NCCCCN3CCOCC3)c3cc(Cl)ccc3n2)cc1 [Compound 98] | – | 30.7 ± 5.2 nM | 30.7 ± 5.2 nM | 73.8 ± 9.7 nM | 10200 ± 2390 nM | 332 | 64.9 min | 21.4 µL/min/mg | 52.7% | – | –
5 | Fc1ccc(/C=C/c2cc(NCCCCN3CCOCC3)c3cc(Cl)ccc3n2)cc1 [Compound 92] | – | 2.4 ± 1.1 nM | 2.4 ± 1.1 nM | 6.9 ± 1.3 nM | 3550 ± 384 nM | 1478 | 22.2 min | 62.4 µL/min/mg | 15.4% | – | –
6 | CN1CCN(CCCCNc2cc(/C=C/c3ccncc3)nc3ccc(Cl)cc23)CC1 [Compound 96] | 0.9 | 33.4 ± 5.4 nM | 33.4 ± 5.4 nM | 36.1 ± 11.3 nM | 8380 ± 2580 nM | 251 | – | – | – | – | –
7 | Fc1ccc(/C=C/c2cc(NCCCCN3CCOCC3)c3cc(Cl)ccc3n2)cc1F [Compound 105] | – | 25.5 ± 6.1 nM | 25.5 nM | 27.6 nM | – | 241 | – | – | – | – | IC50 (HepG2; [14]): 6140 nM; Clint ([5]; mouse liver microsomes): 53.7 µL/min/mg; Projected t1/2 ([5]; mouse liver microsomes (MLM)): 25.8 min; % remaining after 60 min [5, 15]: 19.9%
8 | CN(C)CCNc1cc(/C=C/c2ccccc2F)nc2ccc(Cl)cc12 [Compound 30] | – | 26 ± 0.9 nM | 26 nM | – | 4830 nM | 186 | – | – | – | 26 ± 0.9 nM | RI, resistance index = [IC50 (Dd2)/IC50 (3D7)] ([3]; Dd2 versus 3D7): 0.5; EC50 ([4]; 3D7 strain, read-out: EC50): 55.9 ± 9.5 nM
9 | Clc1ccc2nc(/C=C/c3ccncc3)cc(NCCCCN3CCOCC3)c2c1 [Compound 93] | – | 9.9 ± 1.3 nM | 9.9 nM | 20.8 nM | 5670 nM | 561 | 14.4 min | 96.2 µL/min/mg | 5.62% | 9.9 ± 1.3 nM | –
10 | CN(C)CCNc1cc(/C=C/c2ccncc2)nc2ccc(Cl)cc12 [Compound 50] | 0.6 0.6 0.5 0.3 0.5 | 28.8 ± 5 nM | 28.8 nM | – | – | 212 | – | – | – | 28.8 ± 5 nM | EC50 ([4]; read-out: Antiplasmodium activity 3D7 (converted)): 56.6 nM; IC50 (HepG2; [14]): 6110 nM; Clint ([5]; mouse liver microsomes): 62.2 µL/min/mg; Projected t1/2 ([5]; mouse liver microsomes (MLM)): 22.3 min; % remaining after 60 min [5, 15]: 15.5%
11 | Fc1ccc(/C=C/c2cc(NCCN3CCOCC3)c3cc(Cl)ccc3n2)cc1 [Compound 81] | 0.6 | 24.2 ± 0.8 nM | 24.2 ± 0.8 nM | 41.8 ± 12.7 nM | 17200 ± 3300 nM | 711 | – | – | – | – | –
12 | CN(C)CCNc1cc(/C=C/c2cccc(F)c2)nc2ccc(Cl)cc12 [Compound 31] | – | 5.9 ± 1.4 nM | 5.9 nM | – | 4780 nM | 810 | 43.2 min | 32.1 µL/min/mg | 38.2% | – | RI, resistance index = [IC50 (Dd2)/IC50 (3D7)] ([3]; Dd2 versus 3D7): 0.3; EC50 ([4]; 3D7 strain, read-out: EC50): 23 ± 2.8 nM
13 | C[C@H]1[C@@H](O)O[C@@H]2O[C@@]3(C)CC[C@H]4[C@H](C)CC[C@@H]1[C@@]24OO3 [DHA, dihydroartemisinin, reference compound] | – | – | – | – | – | – | – | – | – | – | IC50 [1, 10]: 17.4 ± 3.7 nM; IC50 ([2]; Plasmodium falciparum, 3D7): 37.4 ± 8.9 nM
14 | Fc1ccc(/C=C/c2cc(NCc3ccccn3)c3cc(Cl)ccc3n2)cc1 [Compound 72] | 0.6 | 156 ± 34.5 nM | 156 ± 34.5 nM | 248 ± 35.1 nM | 19800 ± 3270 nM | 127 | 65.3 min | 21.2 µL/min/mg | 52.9% | 156 ± 34.5 nM | –
15 | COc1ccc2nc(/C=C/c3ccccn3)cc(NCCN(C)C)c2c1 [Compound 42] | – | – | – | – | – | – | – | – | – | 1030 ± 233 nM | –
